This assay relates to SARS-CoV-2, USA-WA1/2020 strain. Type of assay: cell-based. The conditions noted are these: tested conc. 50%; for LRV (log reduction value): compared to the virus control; for Virus titer: lower limit of detection 0.67.

Where two headings read alike, the source gives them in different places.

As for `CCO` [Ethanol], the “LRV (log reduction value)” value (incubation time 15 seconds) is >4.0, the “LRV (log reduction value)” value (incubation time 30 seconds) is >3.83, the “LRV (log reduction value)” value (incubation time 60 seconds) is on record as >4.0 and the “LRV (log reduction value)” value (incubation time 5 minutes) is >3.83. For the same compound, the Virus titer is given as <0.67 Log10 CCID50 of virus per 0.1 mL (incubation time 15 seconds), <0.67 Log10 CCID50 of virus per 0.1 mL (incubation time 30 seconds), <0.67 Log10 CCID50 of virus per 0.1 mL (incubation time 60 seconds) and <0.67 Log10 CCID50 of virus per 0.1 mL (incubation time 5 minutes).
